Values of other authors, collected in patent publication US11685721B2, “Human plasma kallikrein inhibitors” (BioCryst Pharmaceuticals, Inc., priority 2014, dated 2023).

System: patients with hereditary angioedema (HAE)

Row | Molecule | edema (patients with hereditary angioedema (HAE)) | treating HAE (hereditary angioedema)
1 | ecallantide [DX-88] | alleviates edema | 
2 | NC(N)=NCCC[C@@H](N)C(=O)N[C@@H](CCCN=C(N)N)C(=O)N1CCC[C@H]1C(=O)N1C[C@H](O)C[C@H]1C(=O)NCC(=O)N[C@@H](Cc1cccs1)C(=O)N[C@@H](CO)C(=O)N1Cc2ccccc2C[C@@H]1C(=O)N1[C@H](C(=O)N[C@@H](CCCN=C(N)N)C(=O)O)C[C@@H]2CCCC[C@@H]21 [Icatibant] |  | effective
